Publication PMC11984924, “Dipeptidic Phosphonates: Potent Inhibitors of Pseudomonas aeruginosa Elastase B Showing Efficacy in a Murine Keratitis Model” (Advanced Science, 2025)

Experiments:
[1] = Kinetic solubility in PBS pH 7.4; assay type: physicochemical; settings: aqueous buffer, kinetic from dmso stock
Method: The desired compounds were sequentially diluted in DMSO in a 96-well plate. 1.5 µL of each well were transferred into another 96-well plate and mixed with 148.5 µL of PBS. Plates were shaken for 5 min at 600 rpm at room temperature (r.t.), and the absorbance at 620 nm was measured. Absorbance values were normalized by blank subtraction and plotted using GraphPad Prism 8.4.2 (GraphPad Software, San Diego, CA, USA). […]

[2] = Metabolic stability in mouse liver S9 fraction; assay type: in vitro ADME; settings: C57BL/6, liver S9 fraction; mouse liver S9, 1 µM
Method: (§1) page 57: 3. Biological evaluation 3.1 In vitro inhibition assays […] MMPs, TACE). […] inhibitor screening kits were purchased from Sigma-Aldrich (Saint Louis, MO). MMPs along with the SensoLyte 520 Generic MMP Activity Kit Fluorimetric were purchased from AnaSpec (Fremont, CA, USA). The assays were performed according to the guidelines of the respective manufacturer. Fluorescence signals were measured using a CLARIOstar plate reader (BMG Labtech, Ortenberg, Germany). 3.2 Kinetic solubility […] well were transferred into another 96-well plate and mixed with 148.5 µL of PBS. Plates were shaken for 5 min at 600 rpm at room temperature (r.t.), and the absorbance at 620 nm was measured. Absorbance values were normalized by blank subtraction and plotted using GraphPad Prism 8.4.2 (GraphPad Software, San Diego, CA, USA). Solubility (S) was […] 3.3 Lipophilicity determination LogD7.4 was analyzed using an HPLC−based method. The UV retention time of reference […] Linear […] Analysis was performed using a Vanquish Flex HPLC system with variable wavelength detector (Thermo Fisher, Dreieich, Germany) with the following conditions: EC150/2 NUCLEODUR C18 Pyramid column, 5 μM (Macherey Nagel, Düren, Germany); eluent A: 50 mM NH4OAc pH 7.4, eluent B: acetonitrile, and flow: 0.6 mL/min. […] 3.4 Metabolic stability in liver S9 fractions For the evaluation of combined phase I and phase II metabolic stability, the compound (1 μM) was incubated with 1 mg/mL pooled mouse liver S9 fraction (C57BL/6, Xenotech, Kansas Cit y, USA) or human liver S9 fraction (Corning, USA), 2 mM NADPH, 1 mM UDPGA, 10 mM MgCl2, 5 mM GSH and 0.1 mM PAPS at 37 °C for 120 min. The metabolic stability of testosterone, verapamil and ketoconazole were determined in parallel to confirm the enzymatic activity of S56 page 58: mouse S9 fractions, for human S9 testosterone, diclofenac and propranolol were used. The incubation was stopped after defined time points by precipitation of aliquots of S9 enzymes […] Samples were stored on ice until the end of the incubation and precipitated protein was removed by centrifugation (15 min, 4 °C, 4,000 g). Concentration of the remaining test compound at the different time points was analyzed by HPLC-MS/MS (TSQ Quantum Access MAX, Thermo Fisher, Dreieich, Germany) and used to determine half -life (t1/2) and intrinsic clearance (Clint). Species profiling was conducted as above using 0.5 mg/mL pooled mouse, rat or minipig liver microsomes (Xenotech, Kansas City, USA) with 2 mM NADPH and 10 mM MgCl2 and testosterone, verapamil and ketoconazole as reference compounds. 3.5 Plasma stability To determine stability in plasma, the compound (1 µM) was incubated with pooled CD -1 mouse/human/Wistar rat or Göttingen minipig plasma (Neo Biotech, Nanterre, France). Samples were taken by mixing aliquots with 4 volumes of acetonitrile containing internal standard (125 nM diphenhydramine). The plasma stability of procain, propantheline and diltiazem were determined in parallel to confirm the enzymatic activity. Samples were stored on ice until the end of the incubation and precipitated protein was removed by centrifugation (15 min, 4 °C, 4,000 g, two centrifugation steps). Concentration of the remaining test compound at the different time points was analyzed by HPLC-MS/MS (TSQ Quantum Access MAX, Thermo Fisher, Dreieich, Germany) and used to determine half-life (t1/2). Table S2: Additional in vitro ADMET data for selected dipeptides. n.d.: not determined. […] Compound Solubility PBS pH 7.4 [µM] Mouse Human Mouse Human […] S57

[3] = Metabolic stability in human liver S9 fraction; assay type: in vitro ADME; settings: human liver S9, 1 µM
Method: as §1

Plasma stability, mouse = assay type: in vitro ADME; settings: CD-1, read-out: Plasma t1/2 Mouse
Method: To determine stability in plasma, the compound (1 µM) was incubated with pooled CD -1 […]
mouse/human/Wistar rat or Göttingen minipig plasma (Neo Biotech, Nanterre, France).
Samples were taken by mixing aliquots with 4 volumes of acetonitrile containing internal […]
standard (125 nM diphenhydramine). The plasma stability of procain, propantheline and diltiazem were determined in parallel to confirm the enzymatic activity. Samples were stored […]
on ice until the end of the incubation and precipitated protein was removed by centrifugation […]
(15 min, 4 °C, 4,000 g, two centrifugation steps). Concentration of the remaining test compound at the different time points was analyzed by HPLC-MS/MS (TSQ Quantum Access MAX, […]
Thermo Fisher, Dreieich, Germany) and used to determine half-life (t1/2).
Table S2: Additional in vitro ADMET data for selected dipeptides. n.d.: not determined.
Kinetic Liver S9 Clint [µL/mg/min] Plasma t1/2 [min] LogD7.4 […]
pH 7.4 [µM] Mouse Human Mouse Human

HEK293 cells = assay: Cytotoxicity HEK293; assay type: cell-based; settings: Homo sapiens, HEK293, read-out: HEK293 % inhibition at 100 µM (metabolic activity), 48 hours
Method: HepG2 (human hepatocellular carcinoma), HEK293 (human embryonal kidney) and A549
(human lung carcinoma) cells (2x10^5 cells per well) were seeded in 24-well in flat-bottomed
plates. Culturing of cells, incubations and OD measurements were performed as described
previously with small modifications.[14] Twenty-four hours after seeding the cells the incubation
was started by the addition of compounds in a final DMSO concentration of 1%. The living cell
mass was determined after 48 hours in a PHERAstar microplate reader (BMG labtech,
Ortenberg, Germany). Two independent measurements were performed for each compound.

[4] = system: Pseudomonas aeruginosa strain PA14; assay: Antibacterial effect on P. aeruginosa PA14 growth; assay type: cell-based; settings: PA14, read-out: P. aeruginosa PA14 % inhibition of growth at 100 µM, 18 h, 37 °C
Method: Table S14: Food consumption after treatment with (R)-30.
Table S15: Body and organ weights (gram) after treatment with (R)-30.
3.12 Antibacterial effects
As start OD600 of Pseudomonas aeruginosa strain PA14 we used 0.03 in a total volume of 200
µL in lysogeny broth containing the compounds predissolved in DMSO (max. 1%). Final
compound concentrations prepared from serial dilutions ranged from 3.125 to 100 µM (double
values for each concentration). The ODs were determined after addition of the compounds and
again after incubation for 18 h at 37 °C and 200 rpm in 96 well plates (Sarstedt, Nümbrecht,
Germany) using a FLUOStar Omega (BMG labtech, Ortenberg, Germany). Given percent (%)
inhibition values are means of at least two independent determinations. To obtain the values
for a given compound, their ODs were compared to those of DMSO controls. Concerning the […]

SMILES: CC(=O)c1ccc(NC(=O)[C@@H](NC(=O)[C@@H](CC(C)C)P(=O)(O)O)C(C)C)cc1 [(R)‐30]
- solubility kinetic at 5 min [1]: > 200 µM
- microsomal CLint at 1 µM [2]: < 5.8 µL/min/mg
- microsomal CLint at 1 µM [3]: < 5.8 µL/min/mg
- half-life at 1 µM (Plasma stability, mouse): > 2.5 h
- inhibition at 100 µM (HEK293 cells): < 10%
- inhibition at 100 µM [4]: < 10%

SMILES: CC(C)C[C@H](C(=O)N[C@H](C(=O)Nc1ccc(-n2ccnc2)cc1)C(C)C)P(=O)(O)O [(R)‐36]
- solubility kinetic at 5 min [1]: > 200 µM
- microsomal CLint at 1 µM [2]: < 5.8 µL/min/mg
- microsomal CLint at 1 µM [3]: < 5.8 µL/min/mg
- half-life at 1 µM (Plasma stability, mouse): > 2.5 h
- inhibition at 100 µM (HEK293 cells): 11 ± 9%
- inhibition at 100 µM [4]: < 10%

SMILES: CC(=O)c1ccc(NC(=O)[C@@H](NC(=O)C(CC(C)C)P(=O)(O)O)C(C)C)cc1 (stereo partly drawn) [compound 30]
- solubility kinetic at 5 min [1]: > 200 µM
- microsomal CLint at 1 µM [2]: < 5.8 µL/min/mg
- microsomal CLint at 1 µM [3]: < 5.8 µL/min/mg
- half-life at 1 µM (Plasma stability, mouse): > 2.5 h
- inhibition at 100 µM (HEK293 cells): < 10%
- inhibition at 100 µM [4]: < 10%

SMILES: CC(C)CC(C(=O)N[C@H](C(=O)Nc1ccc(Cl)c(Cl)c1)C1CCCCC1)P(=O)(O)O (stereo partly drawn) [compound 14]
- solubility kinetic at 5 min [1]: > 200 µM
- microsomal CLint at 1 µM [2]: < 5.8 µL/min/mg
- microsomal CLint at 1 µM [3]: < 5.8 µL/min/mg
- half-life at 1 µM (Plasma stability, mouse): > 2.5 h
- inhibition at 100 µM (HEK293 cells): 51 ± 4%
- inhibition at 100 µM [4]: < 10%

SMILES: CC(C)CC(C(=O)N[C@H](C(=O)Nc1ccc(Cl)c(Cl)c1)C(C)C)P(=O)(O)O (stereo partly drawn) [compound 9]
- solubility kinetic at 5 min [1]: > 200 µM
- microsomal CLint at 1 µM [2]: < 5.8 µL/min/mg
- microsomal CLint at 1 µM [3]: < 5.8 µL/min/mg
- half-life at 1 µM (Plasma stability, mouse): > 2.5 h
- inhibition at 100 µM (HEK293 cells): < 10%
- inhibition at 100 µM [4]: < 10%

SMILES: CC(C)CC(C(=O)N[C@H](C(=O)Nc1ccc(Cl)c(Cl)c1)C1CCC1)P(=O)(O)O (stereo partly drawn) [compound 13]
- solubility kinetic at 5 min [1]: > 200 µM
- microsomal CLint at 1 µM [2]: < 5.8 µL/min/mg
- microsomal CLint at 1 µM [3]: < 5.8 µL/min/mg
- half-life at 1 µM (Plasma stability, mouse): > 2.5 h
- inhibition at 100 µM (HEK293 cells): < 10%
- inhibition at 100 µM [4]: < 10%
